Assay in all cases: inhibition of tumour cell growth, NCI panel, 48 h
Experiment [1] has as its system CCRF-CEM leukemia.
Experiment [2] concerns HL-60(TB) leukemia.
Experiment [3] has as its system IGROV1 ovarian.
Experiment [4] deals with MOLT-4 leukemia.
The subject of experiment [5] is TK-10 renal.
Experiment [6] relates to RPMI-8226 leukemia.
The test system of experiment [7] is A549 NSCLC.
For experiment [8], the system named is SF-295 CNS.
The subject of experiment [9] is NCI-H460 lung.
Experiment [10] relates to HOP-92 NSCLC.

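Tested at 5 concentrations; 48 h exposure; 96-well plates; endpoints linearly interpolated, else capped at highest concentration. Abbreviation: GI50, concentration required for 50% inhibition of growth. Definition used: TGI = concentration required for complete inhibition of growth.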

As to `COc1nc(C(=O)NNC(=O)c2nc(OC)c3ccccc3c2-c2ccccc2)c(-c2ccccc2)c2ccccc12`, the TGI in experiment [1], in experiment [2], in experiment [3], in experiment [4], in [5] and in experiment [6] was above 100 µM throughout. In addition, the TGI in [7] and in [8] was above 100 µM each time.

With `CCOC(=O)C1(Cc2ccc3c(c2)CCC3)Cc2cc3c(cc2C1)CCC3`, the TGI in experiment [1] is 35 µM; in experiment [2], above 100 µM; in experiment [3] it was above 100 µM; in experiment [4], 33 µM; in [5], above 100 µM; in experiment [6], 49.2 µM. Moreover, the TGI is 93.5 µM in [9], above 100 µM in experiment [7] and 70.8 µM in experiment [8].

For `N#C/C(C(=O)Nc1ccccc1)=C(/N)N1CCOCC1`, the TGI in experiment [1], in [10], in experiment [3], in [4], in experiment [6] and in [9] was above 100 µM throughout. The TGI in [7] and in experiment [8] was above 100 µM each time.

As for `CC1CC=CC(O)C1` (centres undefined), the TGI in experiment [1], in experiment [10], in [2], in experiment [3], in experiment [4] and in [6] was above 100 µM throughout. Besides, the TGI in experiment [9], in experiment [7] and in experiment [8] was above 100 µM in each case.

As for `CN(C)Cc1cc(C(=O)/C=C/c2ccc(Cl)cc2)cc(CN(C)C)c1O`, the TGI in experiment [1] came to 94.2 µM; in [2], 22.9 µM; in experiment [3], 29 µM; in experiment [4], 49.9 µM; in experiment [5] it was 39 µM; in [6], 42.6 µM. The TGI in [9] stood at 21.8 µM; in [7], 28.7 µM; in experiment [8], 26 µM.

With `CC1=C(C#N)C(C#N)(C#N)C(NN(C)C)C1` (centres undefined), the TGI in experiment [1] is above 100 µM; in experiment [10] it was 30.8 µM; in experiment [2], above 100 µM; in experiment [3] it was 40.9 µM; in experiment [4] it was 79.5 µM; in [5], 34 µM. Also, the TGI is 35.9 µM in experiment [6], above 100 µM in experiment [7] and 79.1 µM in experiment [8].

As for `COc1ccc(C(=O)Sc2c(-c3ccccc3)c(=O)n(-c3ccccc3)c(=S)n2-c2ccccc2)cc1`, the TGI is above 100 µM in experiment [1]; 71.2 µM in experiment [10]; above 100 µM in experiment [2]; 26.4 µM in experiment [3]; 56.1 µM in experiment [4]; above 100 µM in experiment [5]. The TGI in [9], in experiment [7] and in [8] was above 100 µM in each case.

For `COC(=O)Cc1cc(O)c(C/C=C(\C)CC/C=C(\C)C(O)C(=O)C=C(C)C)cc1O` (centres undefined), the TGI turned out to be 10.3 µM in [1]; 47.7 µM in [10]; 12 µM in [2]; 63 µM in experiment [3]; 36.9 µM in experiment [4]; 69.6 µM in experiment [6]. Also, the figures for the TGI in experiment [9], in experiment [7] and in [8] were 48.3 µM, above 100 µM and 55.1 µM, respectively.

As to `C[C@@H]1C[C@H]2[C@@H]3CCC4=CC(=O)C=C[C@]4(C)[C@@]3(Cl)[C@@H](Cl)C[C@]2(C)[C@@]1(O)C(=O)COP(=O)(O)O`, the TGI in experiment [10], in [3], in [4], in [5], in experiment [6] and in experiment [7] was above 100 µM each time. Moreover, the TGI in experiment [8] was above 100 µM.

With `O=[N+]([O-])c1ccc(C=C2C(Cl)=C(Cl)C(Cl)=C2Cl)cc1`, the GI50 in experiment [1] was 2.21 µM; in [10], 2.05 µM; in experiment [3], 2 µM; in [4], 3.07 µM; in [5], 2.41 µM; in experiment [6], 1.84 µM. The results for the GI50 in experiment [9] and in experiment [8] were 3.62 µM and 3.47 µM, respectively. Moreover, the TGI was 6.57 µM in experiment [1]; 4.58 µM in experiment [10]; 4.41 µM in experiment [3]; above 100 µM in [4]; 7.58 µM in [5]; 5.16 µM in experiment [6]. Also, the TGI in experiment [9] was above 100 µM; in experiment [8], 76.6 µM.

As for `CCOC(=O)C1=CC(C)(C(=O)OCC)Nc2c(nc(OC)n(C)c2=O)N1` (centres undefined), the TGI in [1], in experiment [10], in experiment [3], in [4], in [5] and in experiment [6] was above 10 µM throughout. In addition, the TGI in experiment [9], in experiment [7] and in experiment [8] was above 10 µM in each case.

For `Cc1cc2nc3c(C#N)c(-c4ccccc4)cc(Nc4ccc(Cl)cc4)n3c2cc1C`, the TGI in [1], in experiment [5], in experiment [6], in [9], in experiment [7] and in [8] was above 100 µM each time.

Regarding `CC(C)C1OC23CCCCC2C(C#N)(C#N)C1(C#N)C(=N)O3` (centres undefined), the TGI was above 100 µM in experiment [1]; 35.1 µM in experiment [10]; 30.8 µM in experiment [2]; above 100 µM in experiment [4]; 48.4 µM in experiment [5]; 32 µM in experiment [9]. The TGI in [7] and in experiment [8] was above 100 µM throughout.

On to `S=C(c1c[nH]c2ccccc12)N1CCOCC1`, for which the TGI in experiment [1], in experiment [2], in experiment [3], in experiment [4], in experiment [5] and in experiment [6] was above 100 µM throughout. The TGI in experiment [9] and in [8] was above 100 µM throughout.

For `COc1cc(Nc2cnc3cc(F)c(F)cc3n2)cc(OC)c1OC`, the TGI in experiment [1], in [10], in experiment [2], in experiment [3], in [4] and in experiment [5] was above 100 µM in each case. The TGI in [9], in experiment [7] and in [8] was above 100 µM in each case.

Consider `CN1C(=O)N/C(=C\c2ccc(S(=O)(=O)NN)cc2)C1=O`, for which the TGI in experiment [1], in experiment [10], in experiment [2], in [3], in experiment [4] and in experiment [5] was above 100 µM each time. For the same compound, the TGI in experiment [6], in experiment [7] and in [8] was above 100 µM each time.

Consider `CCSc1n/c(=C\c2ccco2)c2nnnn12`, for which the TGI in [1], in experiment [10], in experiment [3], in [4], in experiment [5] and in [6] was above 100 µM throughout. In addition, the TGI in [7] and in [8] was above 100 µM each time.

Consider `COc1ccc(C2CC(c3cccc(Nc4ccncc4)c3)=NN2c2cc(Cl)cc(Cl)c2)cc1` (centres undefined), for which the GI50 is 2.81 µM in [1]; 1.25 µM in [10]; 2.17 µM in experiment [2]; 1.69 µM in [3]; 2.04 µM in experiment [4]; 1.86 µM in experiment [9]. Besides, in [8], the GI50 was 1.73 µM. Moreover, the TGI was above 100 µM in experiment [1]; 2.67 µM in experiment [10]; 5.12 µM in experiment [2]; 3.35 µM in experiment [3]; 4.97 µM in [4]; 3.45 µM in [9]. This compound yielded a TGI in experiment [8] of 3.14 µM.

Regarding `CCCCCCCCCCCCCCCCCCNc1ccn(C2OC(COP(=O)(O)OCC3OC(n4cc(C)c(=O)[nH]c4=O)CC3O)C(O)C2O)c(=O)n1` (centres undefined), the TGI in experiment [1] was 23.6 µM; in experiment [10] it was 62.8 µM; in experiment [4], 25.7 µM; in [5] it was 22.3 µM; in experiment [6], 37.3 µM; in [9], 36.3 µM. Moreover, the TGI in [7] amounted to 32.4 µM; in experiment [8], 33.1 µM.

Take `c1ccc2sc(C3(N4CCCC4)CCCCCC3)cc2c1`: the TGI in [1] worked out at 24.2 µM; in experiment [10], 30 µM; in experiment [2], 35.4 µM; in [3] it was 46.2 µM; in experiment [4], 29.3 µM; in [5], 45.1 µM. The TGI in experiment [9] turned out to be 30.1 µM; in experiment [7], 43 µM; in [8], 30.4 µM.

In the case of `CC1CC(N)=Nc2ccccc2N1` (centres undefined), the TGI in experiment [1], in experiment [2], in experiment [3], in experiment [4], in [5] and in experiment [6] was above 100 µM each time. In addition, the TGI in experiment [7] and in experiment [8] was above 100 µM each time.

With `COc1ccc(N=C2SC(=N/N=c3\sc4ccccc4n3C)SC2=Nc2ccc(OC)cc2)cc1`, the TGI in experiment [10], in experiment [3], in experiment [4], in [5], in experiment [6] and in experiment [9] was above 100 µM in each case. Moreover, the TGI in [7] and in experiment [8] was above 100 µM throughout.

As for `Cc1nc(N)sc1-c1ccnc(Nc2ccc(N3CCOCC3)cc2)n1`, the GI50 is 1.16 µM in experiment [1]; 1.99 µM in [2]; 0.846 µM in experiment [3]; 0.497 µM in experiment [4]; 1.06 µM in experiment [5]; 1.66 µM in experiment [6]. Further, the GI50 is 0.495 µM in [9], 1.13 µM in experiment [7] and 1.2 µM in [8]. Further, the TGI is above 100 µM in experiment [1]; 6.08 µM in [2]; above 33.7 µM in experiment [3]; above 56.1 µM in experiment [4]; 8.14 µM in experiment [5]; above 38.3 µM in experiment [6]. Further, the values for the TGI in [9], in [7] and in experiment [8] were above 43.9 µM, above 100 µM and 74.4 µM, respectively.

As to `O=c1[nH]c(-c2ccc3ccccc3c2)nc2ccccc12`, the TGI in experiment [10] is above 100 µM; in experiment [2] it was above 100 µM; in experiment [3], above 100 µM; in experiment [4], above 100 µM; in experiment [5], 13.4 µM; in experiment [6], above 100 µM. Moreover, the TGI in experiment [9], in [7] and in [8] was above 100 µM each time.

For `C=C1C[C@@H]2O[C@H]3[C@H]4[C@@H](C[C@@H](C)[C@@H](OC(C)=O)[C@H]42)[C@@H](C)CO[C@@]3(C)[C@H](OC(C)=O)C[C@H]1O`, the TGI in experiment [1] is 49.5 µM; in experiment [10] it was above 100 µM; in [2], 36.8 µM; in experiment [3], above 100 µM; in [4], 85.6 µM; in experiment [5] it was above 100 µM. Further, the TGI in experiment [9], in [7] and in [8] was above 100 µM throughout.

On to `CNc1ccc(OC)cc1S(=O)(=O)c1ccccc1[N+](=O)[O-]`, for which the TGI in experiment [1], in [2], in [3], in experiment [4], in [5] and in experiment [6] was above 100 µM each time. Besides, the TGI in experiment [9], in [7] and in experiment [8] was above 100 µM each time.

Take `CN(c1ccc(Cl)cc1)S(=O)(=O)c1cccc([N+](=O)[O-])c1`: the TGI in experiment [1], in [3], in experiment [4], in experiment [5], in [6] and in [9] was above 100 µM each time. In addition, the TGI in [7] and in experiment [8] was above 100 µM each time.

For `CN(c1ccc(Cl)cc1)S(=O)(=O)c1ccc([N+](=O)[O-])cc1`, the TGI in [1], in experiment [2], in experiment [3], in [4], in experiment [5] and in experiment [6] was above 100 µM throughout. Also, the TGI in [9], in [7] and in experiment [8] was above 100 µM in each case.

Source of the values: PubChem BioAssay (NCI).
